From ChEMBL document CHEMBL6120963, “Discovery of Novel PROTAC SIRT6 Degraders with Potent Efficacy against Hepatocellular Carcinoma” (J Med Chem, 2024)
Calls of active or inactive are those of the source. The rule behind the calls is not given here.

Assays:
SK-HEP1 [1] = assay: Induction of DNA damage in human SK-HEP1 cells assessed as long tail moment incubated for 36 hrs followed by irradiation (10 Gy) for 6 hrs by comet assay; assay type: functional, cell-based
SK-HEP1 [2] = assay: Downregulation of FBXO44 expression in human SK-HEP1 cells at 2.5 uM incubated for 36 hrs; assay type: functional, cell-based
[3] = target: T1, Protein cereblon/NAD-dependent protein deacylase sirtuin-6 (Homo sapiens, UniProt Q8N6T7+Q96SW2); assay: PROTAC activity at CRBN/SIRT6 in human SK-HEP1 cells assessed as induction of SIRT6 degradation upto 10 uM incubated for 36 hrs by Western blot analysis relative to control; assay type: cell-based
Target sequence in this assay (Q8N6T7 2-355 limits assumed): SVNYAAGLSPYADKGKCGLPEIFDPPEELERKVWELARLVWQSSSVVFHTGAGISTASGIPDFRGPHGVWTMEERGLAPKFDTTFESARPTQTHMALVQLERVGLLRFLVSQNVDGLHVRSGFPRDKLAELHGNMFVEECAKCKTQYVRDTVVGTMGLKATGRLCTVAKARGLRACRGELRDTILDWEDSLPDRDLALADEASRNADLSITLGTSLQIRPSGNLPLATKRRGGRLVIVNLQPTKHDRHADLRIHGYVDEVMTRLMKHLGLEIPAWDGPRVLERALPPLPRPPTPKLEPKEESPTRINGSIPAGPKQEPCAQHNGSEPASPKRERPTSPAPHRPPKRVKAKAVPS
Target sequence in this assay (Q96SW2 whole entry partner): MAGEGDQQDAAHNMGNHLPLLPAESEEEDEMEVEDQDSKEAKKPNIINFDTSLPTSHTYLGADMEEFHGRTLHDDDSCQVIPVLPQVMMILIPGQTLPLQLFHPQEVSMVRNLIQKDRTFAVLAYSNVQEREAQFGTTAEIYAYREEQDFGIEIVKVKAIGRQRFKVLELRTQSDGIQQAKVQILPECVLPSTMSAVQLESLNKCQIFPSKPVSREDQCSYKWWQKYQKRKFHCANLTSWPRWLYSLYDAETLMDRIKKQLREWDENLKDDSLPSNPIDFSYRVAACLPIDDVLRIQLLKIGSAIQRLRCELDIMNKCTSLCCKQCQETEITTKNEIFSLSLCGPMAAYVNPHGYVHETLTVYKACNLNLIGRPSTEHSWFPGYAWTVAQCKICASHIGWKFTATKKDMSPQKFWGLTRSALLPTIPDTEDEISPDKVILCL

SK-HEP1 [4] = assay: Downregulation of CCPG1 expression in human SK-HEP1 cells at 2.5 uM incubated for 36 hrs in presence of MLN4924; assay type: functional, cell-based
SK-HEP1 [5] = assay: Inhibition of cell proliferation of human SK-HEP1 cells xenografted in BALB/c nude mouse at 10 mg/kg treated for 28 to 30 days under irradiation (3 Gy); assay type: functional, organism-based; details: time 28-30 day
[6] = Toxicity in BALB/c nude mouse xenografted with human SK-HEP1 cells assessed as pathological damage in liver at 10 mg/kg treated for 28 to 30 days in presence of sorafenib by H and E staining based analysis; assay type: organism-based; details: in vivo, time 28-30 day
SK-HEP1 [7] = assay: Effect of genes related to mitochondrial matrix in human SK-HEP1 cells at 2.5 uM incubated for 36 hrs by GSEA analysis; assay type: functional, cell-based
[8] = Toxicity in BALB/c nude mouse xenografted with human SK-HEP1 cells assessed as pathological damage in spleen at 10 mg/kg treated for 28 to 30 days under irradiation (3 Gy) by H and E staining based analysis; assay type: organism-based; details: in vivo, time 28-30 day
[9] = Toxicity in BALB/c nude mouse xenografted with human SK-HEP1 cells assessed as body weight loss at 10 mg/kg treated for 28 to 30 days; assay type: organism-based; details: in vivo, time 28-30 day
SK-HEP1 [10] = assay: Inhibition of colony formation in human SK-HEP1 cells at 2.5 uM incubated for 10 to 14 days with replacement of medium containing compounds on every 3 days in presence of sorafenib by crystal violet staining based analysis; assay type: functional, cell-based; details: time 10-14 day
SK-HEP1 [11] = assay: Effect of genes related to protein heterodimerization in human SK-HEP1 cells at 2.5 uM incubated for 36 hrs by GSEA analysis; assay type: functional, cell-based
[12] = target: T1, Protein cereblon/NAD-dependent protein deacylase sirtuin-6; assay: PROTAC activity at CRBN/SIRT6 in human SK-HEP1 cells assessed as impairment in CHD4 foci formation by immunofluorescence based analysis; assay type: cell-based
Target sequence in this assay (Q8N6T7 2-355 limits assumed): as the sequence (Q8N6T7 2-355 limits assumed) above
Target sequence in this assay (Q96SW2 whole entry partner): as the sequence (Q96SW2 whole entry partner) above

[13] = target: T1, Protein cereblon/NAD-dependent protein deacylase sirtuin-6; assay: PROTAC activity at CRBN/SIRT6 in human SK-HEP1 cells assessed as disruption of CHD4 recruitment to DSB sites at 2.5 uM incubated for 36 hrs followed by CPT treatment for 4 hrs by Western blot analysis; assay type: cell-based; details: time 40.0 hrs
Target sequence in this assay (Q8N6T7 2-355 limits assumed): as the sequence (Q8N6T7 2-355 limits assumed) above
Target sequence in this assay (Q96SW2 whole entry partner): as the sequence (Q96SW2 whole entry partner) above

Huh-7 = assay: Effect on SIRT7 expression in human Huh-7 cells at 0.002 to 1 uM incubated for 36 hrs by Western blot analysis; assay type: functional, cell-based; details: dose 0.002-1 µM
SK-HEP1 [14] = assay: Inhibition of colony formation in human SK-HEP1 cells at 5 uM incubated for 10 to 14 days with replacement of medium containing compounds on every 3 days combined with irradiation (3 Gy) by crystal violet staining based analysis; assay type: functional, cell-based; details: time 10-14 day
[15] = target: T1, Protein cereblon/NAD-dependent protein deacylase sirtuin-6; assay: PROTAC activity at CRBN/SIRT6 in human Huh-7 cells assessed as induction of SIRT6 degradation at 1 uM incubated for 24 hrs by Western blot analysis; assay type: cell-based
Target sequence in this assay (Q8N6T7 2-355 limits assumed): as the sequence (Q8N6T7 2-355 limits assumed) above
Target sequence in this assay (Q96SW2 whole entry partner): as the sequence (Q96SW2 whole entry partner) above

[16] = target: T1, Protein cereblon/NAD-dependent protein deacylase sirtuin-6; assay: PROTAC activity at CRBN/SIRT6 in human SK-HEP1 cells assessed as reduction in density of SIRT6 foci incubated for about 36 hrs by immunofluorescence based analysis; assay type: cell-based; details: dose <= 5.0 µM
Target sequence in this assay (Q8N6T7 2-355 limits assumed): as the sequence (Q8N6T7 2-355 limits assumed) above
Target sequence in this assay (Q96SW2 whole entry partner): as the sequence (Q96SW2 whole entry partner) above

[17] = target: T1, Protein cereblon/NAD-dependent protein deacylase sirtuin-6; assay: PROTAC activity at CRBN/SIRT6 in human SK-HEP1 cells assessed as disruption of CHD4 recruitment to DSB sites at 2.5 uM incubated for 36 hrs followed by VP16 treatment for 4 hrs by Western blot analysis; assay type: cell-based; details: time 40.0 hrs
Target sequence in this assay (Q8N6T7 2-355 limits assumed): as the sequence (Q8N6T7 2-355 limits assumed) above
Target sequence in this assay (Q96SW2 whole entry partner): as the sequence (Q96SW2 whole entry partner) above

[18] = Toxicity in BALB/c nude mouse xenografted with human SK-HEP1 cells assessed as pathological damage in lungs at 10 mg/kg treated for 28 to 30 days under irradiation (3 Gy) by H and E staining based analysis; assay type: organism-based; details: in vivo, time 28-30 day
SK-HEP1 [19] = assay: Induction of apoptosis in human SK-HEP1 cells xenografted in BALB/c nude mouse assessed as increase in cleaved caspase-3 level at 10 mg/kg treated for 28 to 30 days under irradiation (3 Gy); assay type: functional, organism-based; details: time 28-30 day
[20] = target: T1, Protein cereblon/NAD-dependent protein deacylase sirtuin-6; assay: PROTAC activity at CRBN/SIRT6 in human SK-HEP1 cells assessed as impairment in gamma-H2AX foci formation by immunofluorescence based analysis; assay type: cell-based
SK-HEP1 [21] = assay: Effect of SIRT2 mRNA expression in human SK-HEP1 cells at 2.5 uM incubated for 36 hrs by RT-qPCR analysis; assay type: functional, cell-based
[22] = Toxicity in BALB/c nude mouse xenografted with human SK-HEP1 cells assessed as pathological damage in spleen at 10 mg/kg treated for 28 to 30 days in presence of sorafenib by H and E staining based analysis; assay type: organism-based; details: in vivo, time 28-30 day
[23] = target: T1, Protein cereblon/NAD-dependent protein deacylase sirtuin-6; assay: PROTAC activity at CRBN/SIRT6 in pomalidomide-treated human SK-HEP1 cells assessed as induction of SIRT6 degradation at 2.5 uM treated for 36 hrs by Western blot analysis; assay type: cell-based
SK-HEP1 [24] = assay: Effect of POSTN mRNA expression in human SK-HEP1 cells at 2.5 uM incubated for 36 hrs by RNA sequencing analysis; assay type: functional, cell-based
[25] = Toxicity in BALB/c nude mouse xenografted with human SK-HEP1 cells assessed as pathological damage in kidney at 10 mg/kg treated for 28 to 30 days in presence of sorafenib by H and E staining based analysis; assay type: organism-based; details: in vivo, time 28-30 day
SK-HEP1 [26] = assay: Induction of apoptosis in human SK-HEP1 cells assessed as rate of apoptotic cells at 10 uM incubated for 72 hrs by Annexin V-FITC/PI staining based flow cytometry relative to control; assay type: functional
[27] = Toxicity in BALB/c nude mouse xenografted with human SK-HEP1 cells assessed as pathological damage in kidney at 10 mg/kg treated for 28 to 30 days under irradiation (3 Gy) by H and E staining based analysis; assay type: organism-based; details: in vivo, time 28-30 day
SK-HEP1 [28] = assay: Induction of DNA damage in human SK-HEP1 cells xenografted in BALB/c nude mouse assessed as increase in gamma-H2AX level at 10 mg/kg treated for 28 to 30 days under irradiation (3 Gy); assay type: functional, organism-based; details: time 28-30 day
SK-HEP1 [29] = assay: Induction of apoptosis in human SK-HEP1 cells at 2.5 uM incubated for 72 hrs in presence of CPT by Annexin V-FITC/PI staining based flow cytometry; assay type: functional, cell-based
SK-HEP1 [30] = assay: Effect of genes related to ubiquitin-mediated proteolysis in human SK-HEP1 cells at 2.5 uM incubated for 36 hrs by GSEA analysis; assay type: functional, cell-based
SK-HEP1 [31] = assay: Effect of SIRT1 mRNA expression in human SK-HEP1 cells at 2.5 uM incubated for 36 hrs by RT-qPCR analysis; assay type: functional, cell-based
[32] = target: T1, Protein cereblon/NAD-dependent protein deacylase sirtuin-6; assay: PROTAC activity at CRBN/SIRT6 in human SK-HEP1 cells assessed as induction of SIRT6 degradation incubated for 36 hrs by Western blot analysis; assay type: cell-based
Target sequence in this assay (Q8N6T7 whole entry): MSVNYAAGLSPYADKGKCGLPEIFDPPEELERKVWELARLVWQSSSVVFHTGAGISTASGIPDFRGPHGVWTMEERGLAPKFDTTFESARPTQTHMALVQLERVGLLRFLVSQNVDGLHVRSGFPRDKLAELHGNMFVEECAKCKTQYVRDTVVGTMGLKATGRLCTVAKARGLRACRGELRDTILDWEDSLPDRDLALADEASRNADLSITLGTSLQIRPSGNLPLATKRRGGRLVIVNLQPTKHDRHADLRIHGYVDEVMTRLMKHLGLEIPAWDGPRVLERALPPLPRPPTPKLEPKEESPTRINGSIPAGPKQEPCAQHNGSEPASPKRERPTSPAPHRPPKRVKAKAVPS
Target sequence in this assay (Q96SW2 whole entry): as the sequence (Q96SW2 whole entry partner) above

SK-HEP1 [33] = assay: Effect on H3K56Ac expression in human SK-HEP1 cells at 0.002 to 1 uM incubated for 36 hrs by Western blot analysis; assay type: functional, cell-based; details: dose 0.002-1 µM

Nc1cc(N2CCN(CC3CCN(c4cc5c(cc4F)C(=O)N(C4CCC(=O)NC4=O)C5=O)CC3)CC2)ccc1[N+](=O)[O-] (stereo not given)
Activity (SK-HEP1 [1]): Active | Activity (SK-HEP1 [2]): Active | Emax [3]: > 98% | Activity (SK-HEP1 [4]): inactive | inhibition (SK-HEP1 [5]): Active | Activity [6]: Non-toxic | Activity (SK-HEP1 [7]): Active | Activity [8]: Non-toxic | Activity [9]: Non-toxic | inhibition (SK-HEP1 [10]): Active; Exhibited Superior To Compound Alone | Activity (SK-HEP1 [11]): Active | Activity [12]: Active | Activity [13]: Active | Activity (Huh-7): No effect | inhibition (SK-HEP1 [14]): Not active; Exhibited Weaker Inhibition | Activity [15]: Active; Reached A Plateau After 36 Hrs Of Treatment | Activity [16]: Dose-dependent-effect | Activity [17]: Active | Activity [18]: Non-toxic | Activity (SK-HEP1 [19]): Active | Activity [20]: Active | Activity (SK-HEP1 [21]): No effect | Activity [22]: Non-toxic | Activity [23]: inactive | Activity (SK-HEP1 [24]): Active | Activity [25]: Non-toxic | Activity (SK-HEP1 [26]): Active | Activity (SK-HEP1 [26]; record 2): <=60% | Activity [27]: Non-toxic | Activity (SK-HEP1 [28]): Active | Activity (SK-HEP1 [29]): Active | Activity (SK-HEP1 [30]): Active | Activity (SK-HEP1 [31]): No effect | DC50 [32]: 45.3 nM | Activity (SK-HEP1 [33]): No effect
